Laboratory results reported in patent US20250320215A1, “SALTS OF N-[4-(4-[[2-(DIMETHYLAMINO)ETHYL]AMINO]-3-METHYL-1H-PYRAZOLO[3,4-D]PYRIMIDIN-6-YL)-2-FLUOROPHENYL]-2,5-DIFLUOROBENZENESULFONAMIDE AND CRYSTALLINE FORMS THEREOF” (THRYV THERAPEUTICS INC, priority 2022, published 2025).
Values after ≈ are worked out from the molar mass of the structure shown.

Assays:
Type in all cases: physicochemical
[1] = pKa values and protonation state of Compound 1
[2] = Solubility estimates by aliquot addition method in various solvents; details: thermodynamic from solid
Description: Solubility estimates were conducted using an aliquot addition method in a variety of solvents at ambient temperature.
Samples with solvents with poor solubility were heated at 50° C.

[3] = Solubility of the salts in water / MTBE
Description: Solubility in water is >25 mg/mL.

[4] = Dynamic vapor sorption/desorption (DVS) with post-DVS XRPD; details: for Post-DVS XRPD: XRPD after DVS versus before; for Reversibility (DVS): sorption/desorption
Description: Moisture sorption/desorption data were collected on a DVS Intrinsic. 7-20 mg of a sample was placed into a tared sample chamber and automatically weighed. The anhydrates were analyzed with the following setting parameters:
DVS experiments (FIGS. 17, 19, 21, 34, 35, 48 and 50) and XRPD post-DVS experiments (FIGS. 18, 20, 22, 36, 49 and 51) were conducted in order to study the deliquescence behaviour of the crystalline salts upon expose to humidity.

[5] = Solid stability testing (HPLC purity and XRPD); details: for Solid stability: 60° C. (capped/close) and 40° C./75% RH (open) for 7 days; for Purity, Initial T0 / Purity - 7 days, 60° C. / Purity - 7 days, 40° C./75% RH: HPLC; for Purity, Initial T0 / XRPD, Initial T0: before storage; for Purity - 7 days, 60° C. / XRPD - 7 days, 60° C.: capped/closed vial; for Purity - 7 days, 40° C./75% RH / XRPD - 7 days, 40° C./75% RH: open
Description: HPLC analysis were performed with an Agilent HPLC 1260 series instrument. HPLC method for stability testing is as follows:
Solid stability testing of Compound 3, Form D was evaluated at the conditions of 60° C. (capped) and 40° C./75% RH (open) for 7 days. Polymorphic form and purity were analyzed by XRPD and HPLC, respectively. […] (capped) and 40° C./75% RH (open) for 7 days.
Solid stability testing of Compound 4 Form B and Form D were evaluated at the conditions of 60° C. (vial close) and 40° C./75% RH (vial open) for 7 days. Polymorphic form and purity were checked by XRPD and HPLC, respectively.

[6] = Comparative study (interconversion and water activity) between crystalline forms; details: Compound 3: Forms B, C, D, E, non-aqueous and aqueous systems; Compound 4: Forms B to G
Description: (capped) and 40° C. with 75% relative humidity (open).
Form D is stable at high water activity (0.16≤aW≤0.90). Solid stability study indicated Form D was physically and chemically stable at 60° C. (close) and 40° C. at 75% RH for 7 days.

[7] = Water activity study (competition of forms, XRPD); details: room temperature
Description: Water activity study was performed using Compound 3 Form B (anhydrate) as the input material in EtOH/Water with different water content at RT. About 5 mg of Compound 3, Form B was used to prepare saturated solutions and the solutions were filtered by syringe at RT. 5 mg of Compound 3, Form D were added in the 1 mL of filtrate, and the suspension was slurried at RT for 3 and 7 days. The solids collected after filtration were analyzed by XRPD.
Protocol: excess amount of Compound 4 Form B was used to prepare saturated solutions. 6-8 mg each of Compound 4 Form B and Form D were added in the solutions. The suspension was slurried at room temperature for the corresponding times. Residual solids were collected by filtration with syringe filter, and characterized by XRPD.

[8] = Thermal treatment (heat-cool cycle by DSC, XRPD of resulting solids)
Description: Compound 3, Form E was treated with heat-cool cycle by DSC. The resulted solids were characterized by XRPD. Compound 3, Form E, was converted to Compound 3, Form D after desolvation.
Compound 4 Form B was treated with heat-cool cycle by DSC. The resulted solids were checked by XRPD. […] The water was excluded at elevated temperature, then entered in the crystal lattice again at room temperature.
Compound 4 Form C and trace Form B was treated with heat-cool cycle by DSC. The resulted solids were checked by XRPD. The sample was converted to low crystalline (LC) Form B after heating to 175° C.
Compound 4 Form D was treated with heat-cool cycle by DSC. The resulted solids were checked by XRPD. The sample kept unchanged after heating to 140° C., but was converted to a new low crystalline form after heating to 210° C. which was assigned to Form F.

[9] = Drying, physical stability of the form
Description: After being subjected to drying in a vacuum oven for 1 day at 62-72° C., Form A was characterized by XRPD (FIG. 22: pre-DVS) and proton NMR (FIG. 15).
Form E was obtained by slow cooling crystallization in NMP (FIG. 43). The unstable form has not been characterized further. A clear solution of Compound 4, Form B was dissolved (30 mg) in NMP at 50° C. and cooled from 50° C. to 2° C.

Structure (SMILES): Cc1n[nH]c2nc(-c3ccc(NS(=O)(=O)c4cc(F)ccc4F)c(F)c3)nc(NCCN(C)C)c12 [Compound 1, N-[4-(4-[[2-(dimethylamino)ethyl]amino]-3-methyl-1H-pyrazolo[3,4-d]pyrimidin-6-yl)-2-fluorophenyl]-2,5-difluorobenzenesulfonamide]
- pKa ([1]; first of four pKa values): 2.7
- pKa ([1]; fourth of four pKa values): 11.8
- Charge (dominant protonation state) ([1]; pH 5.81-8.85): Neutral (Zwitterion)
- pKa ([1]; second of four pKa values): 5.81
- pKa ([1]; third of four pKa values): 8.85
- solubility ([2]; ACN, 50 °C, organic solvent or mixture, read-out: Solubility at 50° C.): < 1000 µg/mL
- solubility ([2]; ACN, organic solvent or mixture, read-out: Solubility at RT): < 1000 µg/mL
- solubility ([2]; DCM, 50 °C, organic solvent or mixture, read-out: Solubility at 50° C.): < 1000 µg/mL
- solubility ([2]; DCM, organic solvent or mixture, read-out: Solubility at RT): < 1000 µg/mL
- solubility ([2]; DMF, organic solvent or mixture, read-out: Solubility at RT): 33000 µg/mL (≈ 65.3 mM)
- solubility ([2]; DMSO, organic solvent or mixture, read-out: Solubility at RT): 41000 µg/mL (≈ 81.1 mM)
- solubility ([2]; EtOAc, 50 °C, organic solvent or mixture, read-out: Solubility at 50° C.): < 3000 µg/mL
- solubility ([2]; EtOAc, organic solvent or mixture, read-out: Solubility at RT): < 3000 µg/mL
- solubility ([2]; EtOH, 50 °C, organic solvent or mixture, read-out: Solubility at 50° C.): < 2000 µg/mL
- solubility ([2]; EtOH, organic solvent or mixture, read-out: Solubility at RT): < 2000 µg/mL
- solubility ([2]; IPA, 50 °C, organic solvent or mixture, read-out: Solubility at 50° C.): < 2000 µg/mL
- solubility ([2]; IPA, organic solvent or mixture, read-out: Solubility at RT): < 2000 µg/mL
- solubility ([2]; MTBE, 50 °C, organic solvent or mixture, read-out: Solubility at 50° C.): < 2000 µg/mL
- solubility ([2]; MTBE, organic solvent or mixture, read-out: Solubility at RT): < 2000 µg/mL
- solubility ([2]; MeOH, 50 °C, organic solvent or mixture, read-out: Solubility at 50° C.): > 1000 µg/mL
- solubility ([2]; MeOH, organic solvent or mixture, read-out: Solubility at RT): < 1000 µg/mL
- solubility ([2]; THF, 50 °C, organic solvent or mixture, read-out: Solubility at 50° C.): > 1000 µg/mL
- solubility ([2]; THF, organic solvent or mixture, read-out: Solubility at RT): < 1000 µg/mL
- solubility ([2]; acetone, 50 °C, organic solvent or mixture, read-out: Solubility at 50° C.): < 1000 µg/mL
- solubility ([2]; acetone, organic solvent or mixture, read-out: Solubility at RT): < 1000 µg/mL
- solubility ([2]; water, 50 °C, water, read-out: Solubility at 50° C.): < 2000 µg/mL
- solubility ([2]; water, read-out: Solubility at RT): < 2000 µg/mL

Structure (SMILES): Cc1n[nH]c2nc(-c3ccc(NS(=O)(=O)c4cc(F)ccc4F)c(F)c3)nc(NCCN(C)C)c12 [Compound 2]
- Solubility in water ([3]; water): < 1000 µg/mL
- Post-DVS XRPD [4]: No change
- wt % gain (DVS) ([4]; from 5 to 95% RH): 0.4 wt %

Structure (SMILES): Cc1n[nH]c2nc(-c3ccc(NS(=O)(=O)c4cc(F)ccc4F)c(F)c3)nc(NCCN(C)C)c12.Cl [Compound 3 Form A]
- solubility at 1 day ([3]; water, thermodynamic from solid): < 1000 µg/mL
- Post-DVS XRPD [4]: No change
- wt % gain (DVS) ([4]; from 5 to 96% RH): 2.1 wt %

Structure (SMILES): Cc1n[nH]c2nc(-c3ccc(NS(=O)(=O)c4cc(F)ccc4F)c(F)c3)nc(NCCN(C)C)c12.Cl [Compound 3 Form D]
- Solid stability [5]: chemically and physically stable
- Purity, Initial T0 [5]: 99.19%
- Purity - 7 days, 60° C. [5]: 99.24%
- Purity - 7 days, 40° C./75% RH [5]: 99.30%
- XRPD, Initial T0 [5]: Form D
- XRPD - 7 days, 60° C. [5]: Form D
- XRPD - 7 days, 40° C./75% RH [5]: Form D
- relative stability among the crystalline forms [6]: most stable form
- water activity (aw) at which the form is stable / the most stable form [7]: lower than 0.6
- hygroscopicity [4]: slightly hygroscopic
- wt % gain (DVS) ([4]; first value of '1.5 wt % and 1.7 wt % gain from 80 to 90% RH'): 1.5 wt %
- Reversibility (DVS) [4]: Minor hysteresis

Structure (SMILES): Cc1n[nH]c2nc(-c3ccc(NS(=O)(=O)c4cc(F)ccc4F)c(F)c3)nc(NCCN(C)C)c12.Cl [Compound 3 Form E]
- XRPD Resulting Form ([8]; Heated to 114° C. at 10° C./min, and cooled to 25° C. at 5° C./min): Form E
- XRPD Resulting Form ([8]; Heated to 160° C. at 10° C./min, and cooled to 25° C. at 5° C./min): Form D

Structure (SMILES): Cc1n[nH]c2nc(-c3ccc(NS(=O)(=O)c4cc(F)ccc4F)c(F)c3)nc(NCCN(C)C)c12 [Compound 4 Form A]
- solubility ([3]; MTBE, organic solvent or mixture, thermodynamic from solid, MTBE at RT): < 2000 µg/mL
- Solubility in water ([3]; water): > 25000 µg/mL
- physical stability on drying ([9]; vacuum oven for a day at 62-72° C.): retain its crystalline form
- Comments: hygroscopicity (DVS) [4]: Hygroscopic
- hygroscopicity [4]: hygroscopic
- Post-DVS XRPD [4]: No change
- wt % gain (DVS) ([4]; from 5 to 75% RH): 1.3 wt %
- wt % gain (DVS) ([4]; from 75 to 96% RH): 3.2 wt %
- Reversibility (DVS) [4]: Reversible

Structure (SMILES): Cc1n[nH]c2nc(-c3ccc(NS(=O)(=O)c4cc(F)ccc4F)c(F)c3)nc(NCCN(C)C)c12 [Compound 4 Form C + trace Form B]
- XRPD Resulting Form ([8]; Heated to 175° C. at 10° C./min, and cooled to 25° C. at 5° C./min): Form B (LC)

Structure (SMILES): Cc1n[nH]c2nc(-c3ccc(NS(=O)(=O)c4cc(F)ccc4F)c(F)c3)nc(NCCN(C)C)c12 [Compound 4 Form D]
- Solid stability [5]: chemically and physically stable
- Purity, Initial T0 [5]: 99.29%
- Purity - 7 days, 60° C. [5]: 99.17%
- Purity - 7 days, 40° C./75% RH [5]: 99.29%
- XRPD, Initial T0 [5]: Form D
- XRPD - 7 days, 60° C. [5]: Form D
- XRPD - 7 days, 40° C./75% RH [5]: Form D
- XRPD Resulting Form ([8]; Heated to 140° C. at 10° C./min, and cooled to 25° C. at 5° C./min): Form D
- XRPD Resulting Form ([8]; Heated to 210° C. at 10° C./min, and cooled to 25° C. at 5° C./min): Form F
- relative stability among the crystalline forms [6]: most stable form
- hygroscopicity [4]: slightly hygroscopic
- Post-DVS XRPD [4]: No change
- wt % gain (DVS) ([4]; at 80% RH (25° C.)): 0.99 wt %
- water uptake (DVS) ([4]; at 80% RH, 25° C.): 0.99%

Structure (SMILES): Cc1n[nH]c2nc(-c3ccc(NS(=O)(=O)c4cc(F)ccc4F)c(F)c3)nc(NCCN(C)C)c12 [Compound 4 Form E]
- form conversion after drying ([9]; obtained by cooling in NMP from 50° C. to 2° C.): converted to Form D
